Laboratory results from patent US20130203846A1, “PHENYL CARBAMATE COMPOUNDS FOR USE IN PREVENTING OR TREATING ALS” (Bio-Pharm Solutions Co., Ltd., priority 2011, published 2013).
Marks after values point to notes of the source that are not given here.

Experiments:
Format in all cases: in vivo, mouse
male ICR mice = assay: MES (maximal electroshock seizure) test, mice; conditions: for ED50: Mus musculus, oral, at peak time
Experimental: The obtained results are shown as mean±sem. The difference between the groups was statistically analyzed by ANOVA, and then, further examined by Dunnett's test or Bonferroni test. If p is less than 0.05, it was determined that the difference between the groups had statistical significance.

[1] = system: mice expressing mutated human SOD1-G93A transgene; assay: Open field test of ALS transgenic mice; conditions: TG G93A SOD1 mice; 3, 10, 50 mg/kg p.o. once a day; baseline, day 90, day 110
Experimental: (§1) Altogether 80 male and female mice expressing mutated human SOD1-G93A transgene (heterozygous TgN-SOD1-G93A-1Gur; Gurney et al. (1994), Science 264, 1772. 1775) and 15 of their wild type littermates were used for the experiments. […] PCR was used to genotype the mice before the start of the experiments. […]
Open field test measurements were performed before the dosing is stated (baseline) and around day 90 (13th age week) and day 110 (16th age week). […] Mice were placed in the center of the chamber and their behaviors were recorded for 10 minutes. The following parameters were recorded: distance moved.

[2] = system: mice expressing mutated human SOD1-G93A transgene; assay: Clinical scoring and disease onset of ALS transgenic mice; conditions: TG G93A SOD1 mice
Description: Altogether 80 male and female mice expressing mutated human SOD1-G93A transgene (heterozygous TgN-SOD1-G93A-1Gur; Gurney et al. (1994), Science 264, 1772. 1775) and 15 of their wild type littermates were used for the experiments. […] PCR was used to genotype the mice before the start of the experiments.
The animals were grouped as follows: • <Non-transgenic male mice> • Group 1: 15 WT mice treated with vehicle (30% (w/v) polyethyleneclycol 400 (PEG400), once a day, p.o.) starting at 60 days of age and continuing until end-point • <Transgenic G93A SOD1 male mice: ALS-transgenic mice> • Group 2: 20 transgenic mice treated with vehicle (30% (w/v) polyethyleneclycol 400 (PEG400), once a day, p.o.) staring at 60 days of age and continuing until end-point • Group 3: 20 transgenic mice treated with a drug (Compound 1) at dose of 3 mg/kg (once a day, p.o.) staring at 60 days of age and continuing until end-point • Group 4: 20 transgenic mice treated with Compound 1 at dose of 10 mg/kg (once a day, p.o.) staring at 60 days of age and continuing until end-point • Group 5: 20 transgenic mice treated with Compound 1 at dose of 50 mg/kg (once a day, p.o.) staring at 60 days of age and continuing until end-point
Treatment with drug (Compound 1) was started at the age of 60 days and continued until the mice reached 150 days of age. The drug was administered p.o. once a day between 8-12 am. The drug solubilized in 30% (w/v) polyethyleneclycol 400 (PEG400), and the obtained solution was briefly vortexed and sonicated at RT (room temperature) for 20 minutes. Treatment solution of the drug was prepared fresh every day. […]
The earliest clinical signs were tremor and shaking of their limbs when the mice are suspended briefly in the air by their tails. […] Animals were scored by lifting them gently by the base of their tails and observing them for tremors, stiffness and their ability to extend their limbs. […]
Onset of disease for each mouse was recorded when they reach a disease stage 4.

[3] = system: mice expressing mutated human SOD1-G93A transgene; assay: Survival of ALS transgenic mice; conditions: TG G93A SOD1 mice
[4] = system: mice expressing mutated human SOD1-G93A transgene; assay: Body weight of ALS transgenic mice; conditions: TG G93A SOD1 mice; 3, 10, 50 mg/kg p.o. once a day; compared with WT group
Description: as §1
Since weight loss has proven to correlate well with disease development and is easily scored co-jointly with disease stage, the mice were weighted once-a-week at the age of 60 days to 90 days and three times a week after they reach the age of 91 days (13 weeks).

male mice (ICR) [5] = assay: Muscle relaxation: grip strength test (forelimbs); conditions: i.p., 120 mg/kg administered
Experimental: (§2) For testing, male mice (ICR) were purchased from ORIENT BIO INC. (Korea), divided into several groups with 6 mice in each group, and were adapted for 4-5 days. The mice having the weight ranging from 19 g to 26 g were employed for the test. The pharmacological effect of the test compounds on muscle relaxation was evaluated by Rotarod test, grip strength test, and muscular force (wire hang) test. All mice were adapted to the test environment at one hour before starting the tests. The pharmacological effects of all the test compounds were evaluated by administration through peritoneal cavity of the mice (10 ul/g, bw).
A grip strength test using the test animals' forelimbs was performed using an instrument equipped with triangle ring and designed so as to easily grip with the forelimbs of experimental animals, manufactured from Ugo Basile Inc. (Ugo Basile, Mode147106, Italy). […] The mouse was made to grip the rod with its forelimbs, and its tail was pulled, where the force at which the mouse detached from the rod was recorded. […] This experimentation was conducted according to the method described in the reference, ‘Nevins et al. (1993) Quantitative grip strength assessment as a means of evaluating muscle relaxation in mice. […]
(§3) The results of muscle relaxation activity of the phenyl carbamate compounds measured in above Experimental Examples 1.2 to 1.4 are shown in following Table 3.

male mice (ICR) [6] = assay: Muscle relaxation: wire hang test; conditions: i.p., 100 mg/kg administered
Experimental: as §2
This experimentation was conducted using a metal wire of 30 cm in length, which was suspended between two pillars at a height of about 40 cm from the bottom covered with a soft pad. […] Each mouse was made to grip the wire using two forelimbs, and the elapse time before the mouse fell off from the wire to the pad on the bottom was recorded in seconds. Each mouse was given 5 opportunities for this test at an interval of 2 minutes period. The highest 3 records among the test opportunities were selected and the mean value was used as the test result. […]
as §3

[7] = group treated with 10 mg/kg p.o. once a day

Row | SMILES | MES test (po) Peak Time (male ICR mice) [h] | ED50 (male ICR mice) [mg/kg] | other results
1 | C[C@H](OC(N)=O)[C@@H](O)c1cccc(Cl)c1Cl [Compound 38, 1-(2,3-dichlorophenyl)-(S)-1-hydroxypropyl-(S)-2-carbamate] | 2 | 91.4 | 
2 | C[C@H](OC(N)=O)[C@@H](O)c1c(Cl)cccc1Cl [Compound 37, 1-(2,6-dichlorophenyl)-(S)-1-hydroxypropyl-(S)-2-carbamate] | 0.25 |  | 
3 | C[C@H](OC(N)=O)[C@H](O)c1ccccc1Cl [Compound 5, 1-(2-chlorophenyl)-(R)-1-hydroxypropyl-(S)-2-carbamate] | 0.5 |  | 
4 | C[C@H](OC(N)=O)[C@@H](O)c1ccccc1Cl [Compound 1, 1-(2-chlorophenyl)-(S)-1-hydroxypropyl-(S)-2-carbamate] | 2 |  | distance moved, open field test (FIG. 5) [1]: some differences between treatments group of transgenic mice; rate (%) of survivor according to disease onset time (FIG. 2) ([2]; 3, 10, 50 mg/kg p.o. once a day, onset = disease stage 4): delay the disease onset; clinical score of each group (FIG. 4) ([2]; 3, 10, 50 mg/kg p.o. once a day, scale 1 to 5, compared to TG vehicle group): clinical scores were increased by administration of the drug in the dose-dependent manner; effect to delay the disease onset (FIG. 2) [2, 7]: especially remarkable; rate (%) of survivor according to survival time (FIG. 1) ([3]; 3, 10, 50 mg/kg p.o. once a day from 60 days of age, early stage of ALS): survival time is extended; effect to increase the survival rate at early stage of ALS (FIG. 1) [3, 7]: especially remarkable; body weight of each group (FIG. 3) [4]: body weight loss compared with WT group was decrease by administration of the drug in the dose-dependent manner
5 | CC[C@H](OC(N)=O)[C@@H](O)c1ccc(Cl)cc1Cl [Compound 39, 1-(2,4-dichlorophenyl)-(S)-1-hydroxybutyl-(S)-2-carbamate] | 1 | 41.2 | 
6 | C[C@@H](OC(N)=O)[C@H](O)c1ccccc1F [Compound 64, 1-(2-fluorophenyl)-(R)-1-hydroxypropyl-(R)-2-carbamate] |  |  | Grip strength: effect (%) compared to that of control treated with vehicle only (male mice (ICR) [5]): 120 ^a (35.4%); Wire hang: effect (%) compared to that of control treated with vehicle only (male mice (ICR) [6]): 100 ^a (30.8%)
7 | C[C@@H](OC(N)=O)[C@H](O)c1ccccc1Cl [Compound 2, 1-(2-chlorophenyl)-(R)-1-hydroxypropyl-(R)-2-carbamate] | 0.25 |  | 
8 | C[C@@H](OC(N)=O)[C@H](O)c1c(Cl)cccc1Cl [Compound 46, 1-(2,6-dichlorophenyl)-(R)-1-hydroxypropyl-(R)-2-carbamate] | 1 | 35.2 | 
9 | CC(C)[C@H](OC(N)=O)[C@@H](O)c1ccccc1Cl [Compound 9, 1-(2-chlorophenyl)-(S)-1-hydroxy-3-methyl-butyl-(S)-2-carbamate] | 0.5 | 67.1 | 
10 | CC[C@H](OC(N)=O)[C@@H](O)c1c(Cl)cccc1Cl [Compound 40, 1-(2,6-dichlorophenyl)-(S)-1-hydroxybutyl-(S)-2-carbamate] |  | 46.9 | 
11 | CC[C@H](OC(N)=O)[C@@H](O)c1ccccc1Cl [Compound 6, 1-(2-chlorophenyl)-(S)-1-hydroxybutyl-(S)-2-carbamate] | 1 | 22.2 | 
12 | CC(OC(N)=O)C(O)c1ccccc1Cl (racemic) [Compound 3, 1-(2-chlorophenyl)-1-hydroxypropyl-2-carbamate] | 2 |  | 
13 | C[C@H](OC(N)=O)[C@@H](O)c1ccc(Cl)cc1Cl [Compound 36, 1-(2,4-dichlorophenyl)-(S)-1-hydroxypropyl-(S)-2-carbamate] |  | 82.8 | 
14 | CC(C)[C@H](OC(N)=O)[C@@H](O)c1c(Cl)cccc1Cl [Compound 42, 1-(2,6-dichlorophenyl)-(S)-1-hydroxy-3-methyl-butyl-(S)-2-carbamate] | 0.5 | 35.2 | 
